Tests used:
metastatic melanoma = assay: TH-302 monotherapy in patients with metastatic melanoma; type: in vivo, human
Method: As noted, TH-302 has shown benefit in patients with metastatic melanoma. The historical response rate in first-line metastatic melanoma is about 10%, so the results of treatment with TH-302 are quite remarkable. Eleven subjects with metastatic melanoma have been treated with TH-302 monotherapy at initial doses of 575 mg/m^2 to 670 mg/m^2 as part of a 3 consecutive week dosing regimen repeated every 4 weeks. RECIST tumor assessments have been performed for eight subjects. […] Four of the eight subjects continued on-study for additional dosing cycles. Two of the three subjects with a partial response continued on-study through at least Cycle 3 and Cycle 7. The other subject discontinued with clinical deterioration associated with neurological decline from brain metastases.
A patient suffering from a primary melanoma (a skin cancer) that had metastasized to liver and lung was treated as follows. TH-302 was administered to the patient at an amount of 670 mg/m^2 using a 4 week (28 day) dosing cycle: TH-302 was administered once every week for 3 weeks, on days 1, 8, and 15, followed by a week of no TH-302 administration. The patient was administered 2 cycles of TH-302 and assessed by a CT scan.
Enrollment in the study was expanded at the MTD in patients with metastatic melanoma. TH-302 was administered intravenously over 30-60 minutes on Days 1, 8 and 15 of a 28-day cycle. Eligible patients had ECOG≦1, at least one target lesion by RECIST, and acceptable hematologic, liver, and renal function. Patients with symptomatic brain metastases were excluded unless previously treated and well controlled for at least 3 months. Nine patients with metastatic melanoma have been treated in the study. The median age was 70 (range 23-78) with 5 females and 4 males and ECOG 0/1 in 4/5 patients. […] Metastatic sites included liver in 7 patients and lung in 6 patients. All patients had received at least one prior systemic chemotherapeutic regimen. Two serious adverse events, seizures and ascites, were reported; neither was considered related to study drug. Skin adverse events were reported in 8 patients and mucosal adverse events were reported in 4 patients including one grade 3 event. Myelosuppression was not significant, with one event of grade 3/4 neutropenia and anemia and no events of grade 3/4 thrombocytopenia. Eight patients have had RECIST tumor assessments.

[1] = test system: H460 human non-small cell lung cancer; assay: H460 ectopic xenograft, TH-302/docetaxel dosing schedules; type: in vivo, nude mice; conditions: single agent, TH-302 100 mg/kg ip once or Docetaxol 10 mg/kg iv once
Method: (§1) Anti-tumor activity was evaluated by tumor growth delay (TGD) and tumor growth inhibition (TGI). Body weight change, gross and microscopic assessment of tissue changes, and hematologic assays served for toxicity assessment. Testing in these models was conducted generally as follows. 1×10^6 (H460 human non-small cell lung cancer or HT1080 human fibrosarcoma cells) or 3×10^6 (PC-3 human prostate cancer cells) were implanted in the subcutaneous space of the right flank to obtain ectopic xenograft models. Randomization and dosing was initiated when tumors reached a certain size (100-150 mm^3). API grade of TH-302 was used in all experiments while docetaxel, gemcitabine, cisplatin, pemetrexed, and doxorubicin were purchased from commercial sources.
The H460 cells were prepared in 30% Matrigel and 70%. RPMI1640. Mice were anesthetized by isoflurane and were implanted subcutaneously with 1×10^6 cells (in 200 μl) at the flank position. We selected 110 mice bearing similar size tumors (˜100 mm^3) for the study. Mice bearing similar tumor size were randomly assigned into different groups. Treatment started on day 1 (7 days after tumor implantation) except as noted. […] Animals were observed daily and tumor measurements and body weights recorded twice weekly.

H460 NSCLC cells = assay: H460 ectopic xenograft, TH-302/pemetrexed dosing schedules; type: in vivo, nude mice; conditions: single agent, TH-302 100 mg/kg ip Q7Dx2 or PMX 150 mg/kg ip Q7Dx2
Method: as §1
The H460 cells were prepared in 30% Matrigel and 70%. RPMI1640. Mice were anesthetized by isoflurane and were implanted subcutaneously with 1×10^6 cells (in 200 μl) at the flank position. We selected 110 mice bearing similar size tumors (˜100 mm^3) for the study. Mice bearing similar tumor size were randomly assigned into different groups. Treatment started on day 1 (7 days after tumor implantation) except as noted. TH-302 was administered intraperitoneally (IP) at 150 mg/kg, and docetaxel was administered intravenously (IV) at 10 mg/kg. Animals were observed daily and tumor measurements and body weights recorded twice weekly.
In a study conducted substantially as described above except the cells implanted were H460 NSCLC cells and 1×10^6 cells were implanted and mice were randomized into separate groups when their tumors reached ˜100 mm^3 and the chemotherapeutic employed was pemetrexed at a dose of 150 mg/kg given once a week (Q7D) for two weeks IP and the TH-302 was given at 100 mg/kg given once a week (Q7D) for two weeks IP. […]

H460 NSCLC = assay: H460 ectopic tumor model, TH-302 with carboplatin; type: in vivo, nude mice
Method: Anti-tumor activity was evaluated by tumor growth inhibition (TGI) and tumor growth delay (TGD). Body weight change, gross and microscopic assessment of tissue changes, and hematologic assays served for toxicity assessment.
Testing in these models was conducted generally as follows. 1×10^6 H460 human non-small cell lung cancer or HT1080 human fibrosarcoma cells were implanted in the subcutaneous space of the right flank to obtain ectopic xenograft models. For the orthotopic pancreatic model, red-fluorescent protein (RFP) expressing MIA PaCa2 tumors were surgically implanted on the surface of the pancreas. The prostate metastatic model was created by the intraventricular injection of 3×10^6 luciferase-expressing PC-3 cells. […] API grade of TH-302 was used in all experiments while docetaxel, gemcitabine, doxorubicin and pemetrexed were purchased from commercial sources.
Inhibition of tumor growth after administration of TH-302 and carboplatin was greater than for either drug individually in an ectopic tumor model using H460 cells.

[2] = 575-670 mg/m^2, weekly x3 every 4 weeks, eight subjects assessed
[3] = expansion at MTD, 8 patients assessed
[4] = one patient, 670 mg/m^2, 2 cycles, CT scan
[5] = Carboplatin 20 mg/kg IV Q7Dx2, TH-302 100 mg/kg IP Q7Dx2, alone or combined
[6] = TH-302 150 mg/kg IP Q7Dx2, alone or + Carboplatin 20 mg/kg IV Q7Dx2

Cn1c(COP(=O)(NCCBr)NCCBr)cnc1[N+](=O)[O-] [TH-302, (2-bromoethyl)({[(2-bromoethyl)amino][(2-nitro-3-methylimidazol-4-yl)methoxy]phosphoryl})amine]
Partial responses (RECIST) (metastatic melanoma; [2]): Three of the eight subjects | Stable disease (RECIST) (metastatic melanoma; [2]): three of eight subjects | RECIST partial responses (metastatic melanoma; expansion at MTD, Days 1, 8, 15 of 28-day cycle, 8 patients assessed): 37% | Ongoing stable disease after 2 months of therapy (metastatic melanoma; [3]): 38% | Progressive disease (metastatic melanoma; [3]): 25% | Mucosal adverse events (metastatic melanoma; nine patients treated): 4 patients | Skin adverse events (metastatic melanoma; nine patients treated): 8 patients | Decrease in SLD of target lesions (metastatic melanoma; [4]): 53% | Reduction in area of cancer in lung and liver (metastatic melanoma; [4]): over 50% | Days to 500 mm^3 [1]: 21 days | Days to 1000 mm^3 [1]: 31 days | T/C [1]: 42.5% | TGD500, Days (vs. vehicle) [1]: 8 days | TGD1000, Days (vs. vehicle) [1]: 11 days | TGI [1]: 57.5% | Tn (tumor volume on Day n) ([1]; in mm³): 531.74 | Days to 500 mm^3 (H460 NSCLC cells): 19 days | Days to 1000 mm^3 (H460 NSCLC cells): 30 days | T/C (H460 NSCLC cells): 49.7% | TGD500, Days (vs. vehicle) (H460 NSCLC cells): 7 days | TGD1000, Days (vs. vehicle) (H460 NSCLC cells): 9 days | TGI (H460 NSCLC cells): 50.3% | Tn (tumor volume on Day n) (H460 NSCLC cells): 598.34 | Days to 500 mm^3 (H460 NSCLC; [5]): 13.5 days | T/C (H460 NSCLC; [5]): 56.1% | TGD500, Days (vs. vehicle) (H460 NSCLC; [5]): 4 days | TGI (H460 NSCLC; [5]): 43.9% | Tn (tumor volume on Day n) (H460 NSCLC; [5]): 706.0 | Days to 500 mm^3 (H460 NSCLC; [6]): 14.5 days | T/C (H460 NSCLC; [6]): 50.3% | TGD500, Days (vs. vehicle) (H460 NSCLC; [6]): 5 days | TGI (H460 NSCLC; [6]): 49.7% | Tn (tumor volume on Day n) (H460 NSCLC; [6]): 641.6

Source: US8946275B2, “Treatment of cancer using hypoxia activated prodrugs” (Threshold Pharmaceuticals, Inc., priority 2008, dated 2015)
